Reference: patent US20140221499A1, “NOVEL RODENT CONTROL AGENTS AND USES THEREOF” (priority 2011, published 2014)

Key:
[1] = target: T1, mTAAR7f-SS (Mus musculus, UniProt Q5QD08, C133S/Y132S); assay: Reporter gene assay on mutant receptor mTAAR7f-SS; format: cell-based; settings: mutant vs mTAAR7f
T1 construct: Full Taar coding regions were cloned into pcDNA3.1-(Invitrogen); Rho tag (first 20 aa of bovine rhodopsin + linker); expressed in transfected cells; host or cells: HEK293
T1 sequence (Q5QD08 1-358 Y132S/C133S): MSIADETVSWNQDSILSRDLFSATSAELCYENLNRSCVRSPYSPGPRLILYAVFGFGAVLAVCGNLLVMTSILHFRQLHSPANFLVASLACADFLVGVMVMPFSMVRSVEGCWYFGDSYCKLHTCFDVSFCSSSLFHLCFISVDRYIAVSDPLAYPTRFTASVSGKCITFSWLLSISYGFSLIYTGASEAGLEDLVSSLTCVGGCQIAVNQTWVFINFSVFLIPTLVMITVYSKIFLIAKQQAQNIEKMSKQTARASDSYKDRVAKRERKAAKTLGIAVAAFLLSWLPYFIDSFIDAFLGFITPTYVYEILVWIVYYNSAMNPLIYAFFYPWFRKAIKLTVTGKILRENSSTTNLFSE
Procedure: To test this, we created mutant receptors in which sequences of mTAAR7e were swapped into mTAAR7f and vice versa. Position 132^3.37 is a tyrosine in mTAAR7f and the other three receptors that detect 10, but a serine in mTAAR7e and a cysteine in rTAAR7h, the two receptors that detect 6. Furthermore, position 133^3.38 is a cysteine in mTAAR7f but a serine in mTAAR7e and rTAAR7h. We altered positions 132^3.37 and 133^3.38 by mutation of mTAAR7e (‘mTAAR7e-YC’) and mTAAR7f (‘mTAAR7f-SS’) and examined odor responses of these mutants using the cellular reporter gene assay (FIG. 9).
TAAR functional assays. Full Taar coding regions were cloned into pcDNA3.1-(Invitrogen) with or without a 5′ DNA extension of 69 bp encoding the first 20 amino acids of bovine rhodopsin followed by a cloning linker ([…]). Point mutations were introduced in mTAAR7e and mTAAR7f by overlap extension PCR. Functional assays were performed as described (40, 42). Fluorescence was measured on an EnVision plate reader (Perkin Elmer) and SEAP activity graphed as relative fluorescence of a phosphatase substrate.

[2] = target: T2, rTAAR7d (Rattus norvegicus, UniProt Q923X5); assay: CRE-SEAP reporter gene assay in HEK293 cells transfected with rTAAR7d; format: cell-based; parameters: Full Taar coding regions were cloned into pcDNA3.1; expressed in transfected cells; host or cells: HEK293; settings: FIG. 11A, functional with or without 'Rho tag', EC50 ± s.e.m., 4-parameter Hill equation
T2 sequence (Q923X5 1-358): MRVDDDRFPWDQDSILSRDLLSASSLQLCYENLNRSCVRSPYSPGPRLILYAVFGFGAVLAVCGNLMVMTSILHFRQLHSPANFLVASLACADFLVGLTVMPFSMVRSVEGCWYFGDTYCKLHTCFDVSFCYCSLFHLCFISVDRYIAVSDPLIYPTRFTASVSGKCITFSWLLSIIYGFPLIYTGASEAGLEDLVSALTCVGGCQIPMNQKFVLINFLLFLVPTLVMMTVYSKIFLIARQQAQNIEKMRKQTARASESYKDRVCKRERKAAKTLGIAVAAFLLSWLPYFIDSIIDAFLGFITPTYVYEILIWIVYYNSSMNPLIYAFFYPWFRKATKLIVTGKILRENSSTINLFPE
Procedure: FIG. 11 illustrates the dose-dependent responses of TAARs to amines. HEK293 cells were cotransfected with plasmids encoding CRE-SEAP and rTAARs (a) or mTAARs (b), incubated with concentrations of ligands indicated, and assayed for reporter activity (triplicates±s.d.). EC50 values (±s.e.m, bottom right) were calculated using SigmaPlot (Systat Software) and a 4-parameter Hill equation.
The following mixes (10 μM of each indicated compounds) were tested for their ability to activate rat TAARs. Mix 1: butylamine, dibutylamine, hexylamine. Mix 2: 2-aminopentane, isoamylamine, isobutylamine, isopropylamine. Mix 3: N,N-dimethylcyclohexylamine, 1-methylindole, tryptamine, phenylethylamine. Mix 4: indole, 1-methylpyrrolidine, 1-methylpiperidine, pyrrolidine. […]
Full Taar coding regions were cloned into pcDNA3.1-(Invitrogen) with or without a 5′ DNA extension of 69 bp encoding the first 20 amino acids of bovine rhodopsin followed by a cloning linker ([…]). […] Fluorescence was measured on an EnVision plate reader (Perkin Elmer) and SEAP activity graphed as relative fluorescence of a phosphatase substrate.
Here, we set out to identify agonists for additional mouse and rat TAARs. […] Transfected cells were incubated with test chemicals, and phosphatase activity was quantified with a fluorescent substrate as a reporter for TAAR activation. […]

SMILES | reduced affinity of mTAAR7f-SS [1] | EC50 [2]
CN(C)C1CCCCC1 [ligand 10, N,N-dimethylcyclohexylamine] | ~100 fold | 
CN(C)C1CCCCC1 [N,N-DIMETHYLCYCLOHEXYLAMINE, N,N-dimethylcyclohexylamine] |  | 4.6 ± 1.1 µM
